These are literature values, as cited in patent publication US5993851A, “Method for preparing biphasic multilamellar lipid vesicles” (PharmaDerm Laboratories, Ltd., priority 1998, dated 1999).

The test system of the data set is genital warts.

In the case of interferon alpha, under “in vivo”, the “Clinical outcome in words” value is “fairly successful”. Also, the side effects result (systemic application (i.m. injection), genital warts) is “fever, myalgias, headache, nausea, fatigue”.
